Values joined by “and” are separate entries in the source; they are usually repeats but may differ in a detail not shown here. Equal values may be shown once.
Tests used:
SCPJU = assay: Example I postemergence foliar-applied, greenhouse, direct seeded rice weeds; type: in vivo, Schoenoplectus juncoides (Roxb.) Palla
Method in brief: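 Greenhouse plants in loam/sandy loam–grit soil (80:20), grown 8-22 days (29/26 °C, 14 hr photoperiod) to first–fourth true leaf, sprayed postemergence at 187 L/ha with 1.25% (v/v) crop oil concentrate, alone or in mixtures. Visual injury scored 0–100% versus untreated plants after about 3 weeks; mixture expectations by Colby's equation.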

CYPES = assay: Example V (second) postemergence foliar-applied ternary mixtures, greenhouse, direct seeded rice weeds; type: in vivo, Cyperus esculentus L.
Description: The treated plants and control plants were placed in a greenhouse as described above and watered by sub-irrigation to prevent wash-off of the test compounds. After approximately 3 weeks, the condition of the test plants as compared with that of the untreated plants was determined visually and scored on a scale of 0 to 100 percent where 0 corresponds to no injury or growth inhibition and 100 corresponds to complete kill.
Colby's equation was used to determine the herbicidal effects expected from the mixtures (Colby, S. R. 1967. Calculation of the synergistic and antagonistic response of herbicide combinations. Weeds 15:20-22.).
The following equation was used to calculate the expected activity of mixtures containing three active ingredients, A, B, and C: Expected=A+B+C−((A×B+A×C+B×C)/100)+(A×B×C/10000)

SEBEX = assay: Example V post-emergence field trials in direct-seeded rice; type: in vivo, Sesbania exaltata; details: foliar, field trial Humphrey, Arkansas, USA
Description: Multiple field trials were conducted under commercial grower field conditions in Tolima, Colombia; Thessaloniki, Greece; Bianze and Copiano, Italy; and Humphrey, Ark., USA. Trials sites were located in commercially grown fields of direct-seeded rice (Oryza sativa) using standard herbicide small plot research methodology. Plots varied from 2 to 3 meter (m)×5 to 8 m (width×length) with 4 replicates per treatment. The rice crop was grown using normal cultural practices for fertilization, seeding, watering, flooding and maintenance to ensure good growth of the crop and the weeds.
All treatments in the field trials were applied using a backpack compressed air/gas sprayer with flat fan nozzles (80° or 110°) calibrated to apply 187 to 300 L/ha spray volume at approximately 200-400 kPa nozzle pressure. Commercially available products of cyhalofop-butyl (Clincher 180EC, Clincher 200EC, and Clincher SF (285 gr ai/L EC)) were mixed in water at appropriate formulated product rates to achieve the desired rates based on a unit area of application (hectare) to achieve the desired rates as shown. […] Visual weed control was scored on a scale of 0 to 100 percent where 0 corresponds to no injury and 100 corresponds to complete kill.
All treatment results, both for the single product and mixtures, are an average of 4 replicates. The trial sites had naturally occurring populations of weeds. The weed spectrum included, but was not limited to, rice flatsedge (Cyperus iria, CYPIR); smallflower umbrellaplant (Cyperus difformis, CYPDI), junglerice (Echinochloa colona, ECHCO), barnyardgrass (Echinochloa crus-galli, ECHCG); multiple Echinochloa species in the same field (ECHSS), grasslike fimbristylis (Fimbristylis miliacea, FIMMI); ricefield bulrush (Schoenoplectus mucronatus, SCPMU) and hemp Sesbania (Sesbania exaltata, SEBEX). All synergistic interactions were significant at the […] level.

| SMILES | Visual Weed Control (%) - 20 DAA SCPJU Obs (SCPJU; 4.38 gae/ha) | Visual Weed Control (%) - 22 DAA SCPJU Obs (SCPJU; 4.38 gae/ha) [%] | Visual Weed Control (%) - 20 DAA SCPJU Obs (SCPJU; 8.75 gae/ha) [%] | Visual Weed Control (%) - 21 DAA CYPES Obs (CYPES; 8 ae/ha) [%] | Visual Weed Control (%) - 21 DAA CYPES Obs (CYPES; 8 gae/ha) [%] | Visual Weed Control (%) - 7 DAA SEBEX Obs (SEBEX; 24 gae/ha) [%] | Visual Weed Control (%) - 7 DAA SEBEX Obs (SEBEX; 32 gae/ha) [%] | Visual Weed Control (%) - 20 DAA SCPJU Obs (SCPJU; 8 gae/ha) [%] | Visual Weed Control (%) - 21 DAA SCPJU Obs (SCPJU; 8 gae/ha) [%] | Visual Weed Control (%) - 20 DAA SCPJU Obs (SCPJU; 16 gae/ha) [%] | Visual Weed Control (%) - 21 DAA CYPES Obs (CYPES; 35 gai/ha) [%] | Visual Weed Control (%) - 7 DAA SEBEX Obs (SEBEX; 280 gai/ha) [%] |
| --- | --- | --- | --- | --- | --- | --- | --- | --- | --- | --- | --- | --- |
| COc1c(Cl)ccc(-c2nc(C(=O)O)c(Cl)c(N)c2F)c1F [Compound A Acid, 4-amino-3-chloro-6-(4-chloro-2-fluoro-3-methoxyphenyl)-5-fluoropyridine-2-carboxylic acid] | 60% and 70% | 60 | 95 |  |  |  |  |  |  |  |  |  |
| COc1c(Cl)ccc(-c2nc(C(=O)OCc3ccccc3)c(Cl)c(N)c2F)c1F [Compound A Benzyl Ester, benzyl ester of 4-amino-3-chloro-5-fluoro-6-(4-chloro-2-fluoro-3-methoxy-phenyl)pyridine-2-carboxylic acid] | 30% |  | 60 | 70 | 70 | 80 | 78 | 70 | 85 | 85 |  |  |
| CCCCOC(=O)[C@@H](C)Oc1ccc(Oc2ccc(C#N)cc2F)cc1 [Cyhalofop-butyl, butyl(2R)-2-[4-(4-cyano-2-fluorophenoxy)phenoxy]propanoate, reference compound] |  |  |  |  |  |  |  |  |  |  | 0 | 0 |

From patent US9232796B2, “Herbicidal compositions comprising 4-amino-3-chloro-5-fluoro-6-(4-chloro-2-fluoro-3-methoxyphenyl) pyridine-2-carboxylic acid or a derivative thereof and acetyl-CoA carboxylase (ACCase) inhibitors” (DOW AGROSCIENCES LLC, priority 2012, dated 2016)
